Source: US5998405A, “Fused tropane-derivatives as neurotransmitter reuptake inhibitors” (NeuroSearch A/S, priority 1996, dated 1999)
Where a name gives a salt, the structure may show the parent alone.

Assays:
Type in all cases: biochemical, Wistar rat
[1] = molecular target: T1, ^3 H-dopamine uptake in striatal synaptosomes (Rattus norvegicus, UniProt P23977); experiment: In vitro inhibition of 3H-dopamine (3H-DA) uptake in striatal synaptosomes; details: 3H-DA 1 nM, 25 min at 37° C.
T1 construct: Corpi striati from male Wistar rats (150-200 g) are homogenized; from tissue; host or cells: striatum (corpus striatum) of male Wistar rats, P2 synaptosomal pellet
Description: (§1) The compounds of the invention have been tested for their ability to inhibit reuptake of dopamine(DA) noradrenaline(NA) and serotonine(5-HT) in synaptosomes.
(§2) Specific neurotransmitter transporters/uptake sites on nerve terminals presumably function to terminate neuronal signaling by removing the neurotransmitters dopamine, noradrenaline and serotonine, respectively, from the synaptic cleft. The activity of the transporter integral proteins can be measured in vitro by synaptosomal uptake of ^3 H-dopamine, ^3 H-noradrenaline and ^3 H-serotonine, respectively.
In Vitro Inhibition of ^3 H-dopamine (^3 H-DA) Uptake in Striatal Synaptosomes
(§3) Tissue preparations: Preparations are performed at 0-4° C. unless otherwise indicated. Corpi striati from male Wistar rats (150-200 g) are homogenized for 5-10 sec in 100 volumes of ice-cold 0.32M sucrose containing 1 mM pargyline using an Ultra-Turrax homogenizer. Monoamine oxidase activity will be inhibited in the presence of pargyline. The homogenate is centrifuged at 1000×g for 10 min. The resulting supernatant is then centrifuged at 27,000×g for 50 min and the supernatant is discarded. The pellet (P2) is resuspended in oxygenated (equilibrated with an atmosphere of 96% O2 : 4% CO2 for at least 30 min) Krebs-Ringer incubation buffer (8000 ml per g of original tissue) at pH 7.2 containing 122 mM NaCl, 0.16 mM EDTA, 4.8 mM KCl, 12.7 mM Na2 HPO4, 3.0 mM NaH2 PO4, 1.2 mM MgSO4, 1 mM CaCl2, 10 mM glucose and 1 mM ascorbic acid.
(§4) Assay: Aliquots of 4.0 ml tissue suspension are added to 100 μl of test solution and 100 μl of ^3 H-DA (1 nM, final concentration), mixed and incubated for 25 min at 37° C. Non-specific uptake is determined using benztropine (10 μM, final concentration). After incubation the samples are poured directly onto Whatman GF/C glass fibre filters under suction. The filters are then washed three times with 5 ml of ice-cold 0.9% (w/v) NaCl solution. The amount of radioactivity on the filters is determined by conventional liquid scintillation counting. Specific uptake is calculated as the difference between total uptake and non-specific uptake.
The test value is given as IC50 (the concentration (μM) of the test substance which inhibits the specific binding of ^3 H-DA by 50%).

[2] = molecular target: T2, ^3 H-noradrenaline uptake in hippocampal synaptosomes (Rattus norvegicus, UniProt Q63380); experiment: In vitro inhibition of 3H-noradrenaline (3H-NA) uptake in hippocampal synaptosomes; details: 3H-NA 1 nM, 90 min at 37° C.
T2 construct: Hippocampi from male Wistar rats (150-200 g) are homogenized; from tissue; host or cells: hippocampus of male Wistar rats, P2 synaptosomal pellet
Description: as §1, §2
In Vitro Inhibition of ^3 H-noradrenaline (^3 H-NA) Uptake in Hippocampal Synaptosomes
as §3, with “Tissue preparation:” for “Tissue preparations:”, “indicated. Hippocampi” for “indicated. Corpi striati”, “buffer (2000” for “buffer (8000”, “MgSO4, 0.97” for “MgSO4, 1”
as §4, with “H-NA” for “H-DA”, “90” for “25”, “desipramine (1” for “benztropine (10”
The test value is given as IC50 (the concentration (μM) of the test substance which inhibits the specific binding of ^3 H-NA by 50%).

[3] = molecular target: T3, ^3 H-5-hydroxytryptamine (serotonin) uptake in cortical synaptosomes (Rattus norvegicus, UniProt P31652); experiment: In vitro inhibition of 3H-5-hydroxytryptamine (3H-5-HT, serotonin) uptake in cortical synaptosomes; details: 3H-5-HT 1 nM, 30 min at 37° C.
T3 construct: Cerebral cortices from male Wistar rats (150-200 g) are homogenized; from tissue; host or cells: cerebral cortex of male Wistar rats, P2 synaptosomal pellet
Description: as §1, §2
In Vitro Inhibition of ^3 H-5-hydroxytryptamine (^3 H-5-HT, Serotonin) Uptake in Cortical Synaptosomes
as §3, with “preparation:” for “preparations:”, “Cerebral cortices” for “Corpi striati”, “(1000” for “(8000”
as §4, with “H-5-HT” for “H-DA”, “30” for “25”, “citalopram (1” for “benztropine (10”
The test value is given as IC50 (the concentration (μM) of the test substance which inhibits the specific binding of ^3 H-5-HT by 50%).

T1 sequence (P23977 whole entry): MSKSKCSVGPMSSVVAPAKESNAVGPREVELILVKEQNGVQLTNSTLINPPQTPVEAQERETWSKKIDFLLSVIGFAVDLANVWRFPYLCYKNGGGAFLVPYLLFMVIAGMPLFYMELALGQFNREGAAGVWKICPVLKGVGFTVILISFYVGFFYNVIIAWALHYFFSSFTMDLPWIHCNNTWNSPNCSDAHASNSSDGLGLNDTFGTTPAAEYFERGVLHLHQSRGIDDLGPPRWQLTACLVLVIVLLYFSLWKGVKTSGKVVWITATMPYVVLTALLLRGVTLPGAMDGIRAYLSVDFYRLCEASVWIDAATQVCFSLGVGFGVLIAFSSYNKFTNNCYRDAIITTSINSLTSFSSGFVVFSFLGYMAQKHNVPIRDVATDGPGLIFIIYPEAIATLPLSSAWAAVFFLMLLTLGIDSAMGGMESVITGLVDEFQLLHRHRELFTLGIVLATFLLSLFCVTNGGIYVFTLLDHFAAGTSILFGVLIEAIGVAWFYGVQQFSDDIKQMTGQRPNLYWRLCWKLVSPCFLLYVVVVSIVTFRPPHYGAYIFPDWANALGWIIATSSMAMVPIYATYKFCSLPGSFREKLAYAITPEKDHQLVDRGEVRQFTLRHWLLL
T3 sequence (P31652 whole entry): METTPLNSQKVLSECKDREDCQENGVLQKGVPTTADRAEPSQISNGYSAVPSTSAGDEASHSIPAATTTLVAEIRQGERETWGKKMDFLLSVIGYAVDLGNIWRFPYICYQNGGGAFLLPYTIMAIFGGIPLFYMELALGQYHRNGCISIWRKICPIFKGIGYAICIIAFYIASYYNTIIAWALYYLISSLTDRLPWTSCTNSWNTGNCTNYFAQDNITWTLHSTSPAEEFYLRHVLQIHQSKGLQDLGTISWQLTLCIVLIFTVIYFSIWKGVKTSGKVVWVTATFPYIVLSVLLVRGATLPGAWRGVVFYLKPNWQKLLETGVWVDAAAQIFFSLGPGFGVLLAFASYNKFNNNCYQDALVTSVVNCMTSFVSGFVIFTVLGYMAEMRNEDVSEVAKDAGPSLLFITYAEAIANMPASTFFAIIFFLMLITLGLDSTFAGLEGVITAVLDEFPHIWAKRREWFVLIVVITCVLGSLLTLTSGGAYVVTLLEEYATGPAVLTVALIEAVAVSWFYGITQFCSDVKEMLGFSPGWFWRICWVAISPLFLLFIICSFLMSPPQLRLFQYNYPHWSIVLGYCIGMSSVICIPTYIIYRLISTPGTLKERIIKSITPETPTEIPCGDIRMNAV
T2 sequence (Q63380 1-617): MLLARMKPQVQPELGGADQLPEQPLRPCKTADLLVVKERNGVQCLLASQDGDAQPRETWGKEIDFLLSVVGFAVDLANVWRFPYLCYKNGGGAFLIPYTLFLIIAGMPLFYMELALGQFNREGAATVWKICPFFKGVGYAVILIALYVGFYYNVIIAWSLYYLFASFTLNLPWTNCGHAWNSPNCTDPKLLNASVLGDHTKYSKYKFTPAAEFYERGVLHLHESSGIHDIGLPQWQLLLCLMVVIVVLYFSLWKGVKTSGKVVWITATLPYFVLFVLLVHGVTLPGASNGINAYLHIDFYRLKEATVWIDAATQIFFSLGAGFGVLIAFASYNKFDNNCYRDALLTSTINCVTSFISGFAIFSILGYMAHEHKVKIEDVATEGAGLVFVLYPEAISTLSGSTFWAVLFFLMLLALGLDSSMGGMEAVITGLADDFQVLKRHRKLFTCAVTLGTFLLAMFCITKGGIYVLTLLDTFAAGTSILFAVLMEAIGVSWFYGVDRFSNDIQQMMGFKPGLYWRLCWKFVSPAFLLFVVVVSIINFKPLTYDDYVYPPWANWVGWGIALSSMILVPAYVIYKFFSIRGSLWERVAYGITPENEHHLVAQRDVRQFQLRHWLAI

Compound	IC50 [1] [nM]	IC50 [2] [nM]	IC50 [3] [nM]
CON=C1CN2[C@H]3CC[C@@H]2[C@@H]1[C@@H](c1ccc(Cl)c(Cl)c1)C3 [(1S,3S,4S,8R)-3-(3,4-Dichlorophenyl)-7-azatricyclo[5.3.0.0^4,8]decan-5-one O-methyl-oxime]	16	0.9	3.2
COC1CN2[C@H]3CC[C@@H]2[C@@H]1[C@@H](c1ccc(Cl)c(Cl)c1)C3 (stereo partly drawn) [(1S,3S,4S,8R)-3-(3 ,4-Dichlorophenyl)-5-methoxy-7-azatricyclo[5.3.0.0^4,8]decane]	22	1.4	0.1
O=C1CN2[C@H]3CC[C@@H]2[C@@H]1[C@@H](c1ccc(Cl)c(Cl)c1)C3 [(1S,3S,4S,8R)-3-(3,4-Dichlorophenyl)-7-azatricyclo[5.3.0.0^4,8]decan-5-one]	120	5.2	2.6
CON=C1CCN2[C@H]3CC[C@@H]2[C@@H]1[C@@H](c1ccc(Cl)c(Cl)c1)C3 [(1S,2S,4S,7R)-2-(3,4-Dichlorophenyl)-8-azatricyclo[5.4.0.0^4,8]undecan-11-one O-methyl-oxime]	12	2	3.3
O=C1CCN2[C@H]3CC[C@@H]2[C@@H]1[C@@H](c1ccc(Cl)c(Cl)c1)C3 [(1S,2S,4S,7R)-2-(3,4-Dichlorophenyl)-8-azatricyclo[5.4.0.0^4,8]undecan-11-one]	180	35	7.5
CC(=O)OC1CN2[C@H]3CC[C@@H]2[C@@H]1[C@@H](c1ccc(Cl)c(Cl)c1)C3 (stereo partly drawn) [(1S,3S,4S,8R)-3-(3,4-Dichlorophenyl)-7-azatricyclo[5.3.0.0^4,8]dec-5-yl acetate fumarate]	210	6.1	7.5
OC1CCN2[C@H]3CC[C@@H]2[C@@H]1[C@@H](c1ccc(Cl)c(Cl)c1)C3 (stereo partly drawn) [(1S,2S,4S,7R)-2-(3,4-Dichlorophenyl)-8-azatricyclo[5.4.0.0^4,8]undecan-11-ol]	75	4.1	2.8
OC1CN2[C@H]3CC[C@@H]2[C@@H]1[C@@H](c1ccc(Cl)c(Cl)c1)C3 (stereo partly drawn) [(1S,3S,4S,8R)-3-(3,4-Dichlorophenyl)-7-azatricyclo[5.3.0.0^4,8]decan-5-ol]	250	7.4	1.8
